Assay results taken from PubChem BioAssay (NCI).
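Cells were grown in 96-well plates and exposed to each compound for 48 hours at five concentrations; endpoints were interpolated linearly between bracketing concentrations, or set to the highest concentration if not reached. Abbreviation: GI50, concentration required for 50% inhibition of growth. TGI: total growth inhibition.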

What was measured:
Assay in all cases: NCI-60 cell line screen, 48 h
[1] = tested on: HL-60(TB) leukemia
[2] = tested on: SN12C renal
[3] = tested on: SK-MEL-5 melanoma
[4] = tested on: A498 renal
[5] = tested on: OVCAR-3 ovarian
[6] = tested on: HOP-92 NSCLC
[7] = tested on: NCI-H226 lung
[8] = tested on: SK-MEL-2 melanoma
[9] = tested on: SF-295 CNS
[10] = tested on: LOX IMVI melanoma
[11] = tested on: EKVX NSCLC
[12] = tested on: SF-539 CNS
[13] = tested on: OVCAR-5 ovarian
[14] = tested on: NCI-H522 lung
[15] = tested on: BT-549 breast
[16] = tested on: T-47D breast
[17] = tested on: RPMI-8226 leukemia
[18] = tested on: SNB-75 CNS
[19] = tested on: CCRF-CEM leukemia
[20] = tested on: U251 CNS
[21] = tested on: COLO 205 colon
[22] = tested on: HOP-62 NSCLC
[23] = tested on: ACHN renal
[24] = tested on: MDA-MB-435
[25] = tested on: HS 578T breast
[26] = tested on: MOLT-4 leukemia
[27] = tested on: SNB-19 CNS
[28] = tested on: UACC-257 melanoma
[29] = tested on: KM12 colon
[30] = tested on: SF-268 CNS
[31] = tested on: UACC-62 melanoma
[32] = tested on: NCI/ADR-RES ovarian
[33] = tested on: RXF 393 renal
[34] = tested on: SK-OV-3 ovarian
[35] = tested on: UO-31 renal
[36] = tested on: HCC-2998 colon
[37] = tested on: PC-3 prostate
[38] = tested on: CAKI-1 renal
[39] = tested on: HCT-116 colon
[40] = tested on: HT29 colon
[41] = tested on: IGROV1 ovarian
[42] = tested on: A549 NSCLC
[43] = tested on: M14 melanoma
[44] = tested on: TK-10 renal
[45] = tested on: HCT-15 colon
[46] = tested on: NCI-H460 lung
[47] = tested on: SR leukemia
[48] = tested on: K-562 leukemia
[49] = tested on: OVCAR-8 ovarian
[50] = tested on: DU-145 prostate
[51] = tested on: OVCAR-4 ovarian
[52] = tested on: SK-MEL-28 melanoma
[53] = tested on: 786-0 renal
[54] = tested on: MDA-MB-231 breast
[55] = tested on: NCI-H23 lung
[56] = tested on: MCF7 breast
[57] = tested on: SW-620 colon
[58] = tested on: MALME-3M melanoma

## COc1cc(/C=N/Nc2ncnc3[nH]ncc23)ccc1O
[1]
  GI50: > 23.6 µM
  TGI: > 25 µM
[2]
  GI50: 13.6 µM
  TGI: > 25 µM
[3]
  GI50: 17.5 µM
  TGI: > 25 µM
[4]
  GI50: 8.93 µM
  TGI: > 25 µM
[5]
  GI50: > 22.7 µM
  TGI: > 25 µM
[6]
  GI50: 6.77 µM
  TGI: > 22.1 µM
[7]
  GI50: > 25 µM
  TGI: > 25 µM
[8]
  GI50: 6.53 µM
  TGI: 17.1 µM
[9]
  GI50: 18.6 µM
  TGI: > 25 µM
[10]
  GI50: 9.26 µM
  TGI: > 25 µM
[11]
  GI50: > 23.2 µM
  TGI: > 25 µM
[12]
  GI50: 7.78 µM
  TGI: > 21.8 µM
[13]
  GI50: > 19.4 µM
  TGI: > 25 µM
[14]
  GI50: 11 µM
  TGI: > 25 µM
[15]
  GI50: > 23.6 µM
  TGI: > 25 µM
[16]
  GI50: 6.82 µM
  TGI: > 25 µM
[17]
  GI50: > 25 µM
  TGI: > 25 µM
[18]
  GI50: 4.83 µM
  TGI: > 16.6 µM
[19]
  GI50: 14.8 µM
  TGI: > 25 µM
[20]
  GI50: 24.7 µM
  TGI: > 25 µM
[21]
  GI50: > 25 µM
  TGI: > 25 µM
[22]
  GI50: 19.8 µM
  TGI: > 25 µM
[23]
  GI50: 8.01 µM
  TGI: > 25 µM
[24]
  GI50: 7.95 µM
  TGI: > 25 µM
[25]
  GI50: 6.53 µM
  TGI: > 20.5 µM
[26]
  GI50: 12.4 µM
  TGI: > 25 µM
[27]
  GI50: > 25 µM
  TGI: > 25 µM
[28]
  GI50: > 21.8 µM
  TGI: > 25 µM
[29]
  GI50: 12.6 µM
  TGI: > 25 µM
[30]
  GI50: 21.4 µM
  TGI: > 25 µM
[31]
  GI50: 11.3 µM
  TGI: > 25 µM
[32]
  GI50: > 25 µM
  TGI: > 25 µM
[33]
  GI50: 5.24 µM
  TGI: > 18.9 µM
[34]
  GI50: 17.9 µM
  TGI: > 25 µM
[35]
  GI50: 5.96 µM
  TGI: > 25 µM
[36]
  GI50: > 25 µM
  TGI: > 25 µM
[37]
  GI50: > 20.6 µM
  TGI: > 25 µM
[38]
  GI50: 6.93 µM
  TGI: > 25 µM
[39]
  GI50: 19.6 µM
  TGI: > 25 µM
[40]
  GI50: 12.6 µM
  TGI: > 25 µM
[41]
  GI50: 8.97 µM
  TGI: > 25 µM
[42]
  GI50: > 25 µM
  TGI: > 25 µM
[43]
  GI50: 15.7 µM
  TGI: > 25 µM
[44]
  GI50: 9.15 µM
  TGI: > 22.1 µM
[45]
  GI50: 24.6 µM
  TGI: > 25 µM
[46]
  GI50: 24.7 µM
  TGI: > 25 µM
[47]
  GI50: 13.1 µM
  TGI: > 25 µM
[48]
  GI50: 9.94 µM
  TGI: > 25 µM
[49]
  GI50: > 25 µM
  TGI: > 25 µM
[50]
  GI50: > 23.9 µM
  TGI: > 25 µM
[51]
  GI50: > 25 µM
  TGI: > 25 µM
[52]
  GI50: > 20.1 µM
  TGI: > 25 µM
[53]
  GI50: 11.8 µM
  TGI: > 25 µM
[54]
  GI50: > 20.1 µM
  TGI: > 25 µM
[55]
  GI50: > 21.7 µM
  TGI: > 25 µM
[56]
  GI50: 11.4 µM
  TGI: > 25 µM
[57]
  GI50: > 25 µM
  TGI: > 25 µM
[58]
  GI50: 11.7 µM
  TGI: > 25 µM
